Test results published in patent US7802989B2, “Ozone tray” (CurOzone Ireland Ltd., priority 2000, dated 2010).

Tested on: white spots
Test: Ozone applied through tray over teeth and gums with in situ orthodontic bands; teeth examined for white spots
Format: in vivo
Details: ozone introduced for up to 2 minutes
From the text: The method includes disposing the resilient elastomeric tray over the teeth 124 and orthodontic bands 160 applied thereto.
Ozone introduced into the cavity 136 via the port 150 is provided for a period of time to treat the white spots and sterilize the orthodontic bands 160.
Thereafter, the ozone is evacuated from the cavity 136 via the nozzle 128 and the tray 120 is removed from the arched upper or lower teeth 124.
The tray is disposed over teeth and gums with in situ orthodontic bands and ozone introduced for up to 2 minutes.

Question: With O=[O+][O-] [ozone] as the compound, how does the “examination of teeth for white spots after ozone treatment” value read?
Answer: beneficial results
